Assay results: a melting point compilation (Tetko et al.; mined from patent text by program, amines drawn as free bases though some values may be those of a salt)

Row | SMILES | melting point [°C]
1 | O=C(O)C1(Cn2cnnn2)CCCC1 | 192 to 196
2 | COC(=O)Nc1c(C/C=C(\C)CCC(=O)O)c(OC)c(C)c2c1C(=O)OC2 | 155 to 158
3 | C#CC1(O)CCC2C3CCC4=CC(=O)CCC4C3C(C(F)F)CC21C (stereo not drawn) | 185 to 187
4 | COc1ccc(CC2Cc3cccc(-c4cccc(C(=O)NCCN5CCCC5)c4)c3O2)cc1OC (stereo not drawn) | 134 to 135
5 | COc1c(C)c2c(c(O)c1C/C=C1\CCC(C(=O)O)C1)C(=O)OC2 (stereo not drawn) | 128 to 130
6 | CCOP(=O)(C=Cc1ccc([N+](=O)[O-])cc1)OCC | 95 to 98
7 | O=C(O)c1ccc(SC(=O)c2ccc(O)c(C34CC5CC(CC(C5)C3)C4)c2)cc1 | 272 to 274
8 | CCc1ccc(C=CC(=O)O)cc1 | 140
9 | COc1cccc(CNC(=O)c2c(-c3ccc(F)cc3)c(-c3ccc(F)cc3)c(C=O)n2C(C)C)c1 | 167 to 168
10 | Cn1c(OC2CCOC2)nn(C(=O)NS(=O)(=O)c2ccccc2Br)c1=O (stereo not drawn) | 191
11 | O=Cc1c(O)c(O)cc2ccccc12 | 132 to 133
12 | CC(=O)NCC1CN(c2ccc(N3CCN(C(=O)COC(=O)CCCN(C)C)CC3)c(F)c2)C(=O)O1 (stereo not drawn) | 69 to 71
13 | Cc1cc(C)cc(OCC(C)O)c1 (stereo not drawn) | 48.7 to 49.5
14 | c1ccc2nc3c(nc2c1)OCC1CCCCN31 (stereo not drawn) | 141 to 143
15 | O=C1CNc2ncc(-c3cccnc3)cc2N1Cc1c(Cl)cccc1Cl | > 200
16 | O=C(c1ccccc1)c1cc2c(cc1O)C(CO)(C(=O)O)CC2 (stereo not drawn) | 104 to 110
17 | COc1ccc(CNc2cc3c(Nc4ccc5c(cnn5Cc5cccc(F)c5)c4)ncnc3cn2)cc1 | 196 to 198
18 | COc1ccc(/C=C(\C#N)c2ccccn2)cc1OC1CCCC1 | 82.5 to 83
19 | NC(=O)c1ccc(NC(=O)c2ccccc2SSc2ccccc2C(=O)Nc2ccc(C(N)=O)cc2)cc1 | > 270
20 | Cc1cc2c(cc1Cl)N(C(=O)CN1CCN(C)CC1)c1ccccc1N(C)S2(=O)=O | 156 to 158
21 | COc1cc2c(cc1OC)C1CCC(O)CC1N=C2c1ccc(OCC2CC2)c(OCC2CC2)c1 (stereo not drawn) | 172 to 174
22 | O=Cc1cccc(CF)n1 | 60
23 | CCNC1C=CC=C(Oc2ccc(F)cc2)C1(Cl)[N+](=O)[O-] (stereo not drawn) | 69 to 70
24 | N#Cc1c[nH]cc1-c1ccc(Cl)cc1C(=O)c1ccccc1F | 177 to 179
25 | CC1(C)OC(=O)N(c2cccc(C#CC#N)c2)c2ccccc21 | 212 to 213
26 | CC(Cc1nc(-c2ccccc2)nc2ccccc12)C(=O)N(C)C(C)C (stereo not drawn) | 171

Row | SMILES | melting point [°C]
27 | CC(C)n1cnc2c(Nc3ccc([N+](=O)[O-])cc3)nc(Cl)nc21 | > 260
28 | Cn1cccc1C(N)=S | 87 to 88
29 | NCC(O)CSc1ccccc1 (stereo not drawn) | 57 to 61
30 | CCCCN(CC(=O)N1c2ccccc2N(C)C(=O)c2cnc(-c3ccccc3)nc21)C(C)(C)C | 111 to 113
31 | O=c1[nH]c2cc(Cl)cc(Cl)c2c(O)c1Sc1ccc(NC(=S)NCc2ccccc2)cc1 | 282
32 | CC(=O)NCC1CN(c2ccc(-c3cccc(CN)c3)c(F)c2)C(=O)O1 (stereo not drawn) | 170
33 | O=[N+]([O-])c1ccc(OCCN2CCN(c3nsc4ccccc34)CC2)cc1 | 115
34 | COc1ccc(-c2nnc3c4ccccc4c(Nc4ccc(N)cc4)nn23)cc1 | 295
35 | CCOC(=O)c1cc(OCc2ccccc2)ccc1O | 71.5 to 73
36 | CCOC(=O)C(=O)Nc1cc(C#N)ccc1O | 295
37 | O=C(O)/C=C(\c1cc(F)cc(F)c1)C(F)(F)F | 129 to 130
38 | Nc1ccc(Br)c(-c2nc3ncccc3o2)c1 | 172 to 174
39 | OCc1ccnc(F)c1 | 61 to 63
40 | O=C(Nc1ccc(C(=O)N2Cc3cccn3Cc3ccccc32)cc1)c1cc(Cl)cc(Cl)c1Cl | 231 to 234
41 | Cc1sc(NS(=O)(=O)c2ccc(-c3ccccc3)cc2)nc1CC(=O)N1CCOCC1 | 204 to 206
42 | NC(=O)c1ccc(F)c(Br)c1 | 131 to 133
43 | NCC1Cc2cc(-c3ccccc3F)cc(F)c2O1 (stereo not drawn) | > 250
44 | COCC1CN(c2cc3c(cc2F)c(=O)c(C(=O)O)cn3-c2ccc(F)cc2)CCN1 (stereo not drawn) | 216 to 218
45 | COC(=O)COc1ccccc1C1C(C(=O)OC)=C(C)NC(C)=C1C(=O)OC | 153 to 155
46 | COc1ccccc1NC(=O)Nc1nc(Nc2ccccc2-c2ccccc2)nc(N2CCC(C(=O)O)CC2)n1 | 130 to 135
47 | O=C1c2ccccc2C(=O)N1CCON=C1c2ccccc2-n2cccc21 | 195
48 | Cc1[nH]nc(Oc2c(Cl)cc(C(F)(F)F)cc2Cl)c1C | 220 to 223
49 | O=c1cc(-c2ccncc2)nc2n1CC(O)CN2CCCc1ccccc1F (stereo not drawn) | 305 to 307
50 | CCOC(=O)c1c(C(F)(F)F)n(C)cc(-c2cc(OC(C)C)c(Cl)cc2F)c1=O | 170 to 172
51 | CCCCCCCCCCCCCC(=O)Nc1ccc(Cl)c(NC2=NN(c3c(Cl)cc(Cl)cc3Cl)C(=O)C2SCCc2ccccc2)c1 (stereo not drawn) | 161 to 162
52 | CCOC(=O)C(N=C(c1ccccc1)c1cc(Cl)ccc1NC)C(=O)OCC | 88

Row | SMILES | melting point [°C]
53 | CCOC(=O)C1=C(COCc2nnc(N)s2)NC(C)=C(C(=O)OC)C1c1cccc(Cl)c1Cl (stereo not drawn) | 194
54 | CCCCCCCCC#CCC#CCC#CCS(=O)CC(=O)NCC (stereo not drawn) | 77
55 | COc1ncc(Cl)cc1C1OC(=O)NC1=O (stereo not drawn) | 199 to 204
56 | COc1ccc(Cl)cc1-c1c(Sc2ncccn2)c(=O)[nH]c2ccc(C(F)(F)F)cc12 | 302 to 303
57 | CN(C)c1ncc(-c2cccc(Nc3ccc(-n4cccc4)cc3[N+](=O)[O-])c2)cn1 | 166 to 168
58 | CCCCOc1cc2c(Cl)c(C#N)cnc2cc1OCCOC | 128 to 130
59 | NC(=S)c1c(F)cccc1Cl | 153 to 157
60 | COc1cc(C(C)C#Cc2c(C)nc(N)nc2N)cc(OC)c1OC (stereo not drawn) | 191 to 193
61 | O=C1CCSC(=S)N1c1c(F)c(F)c(F)c(F)c1F | 164
62 | O=C(O)CCNC(=O)C(=Cc1ccc(Oc2ccccc2)cc1)CS | 108
63 | CCCOc1ncc(NCC(=O)OC)cc1-c1nc2c(CCC)nn(C)c2c(=O)[nH]1 | 175
64 | COc1ccc(Cn2ccn(C3CCc4ccccc4C3)c2=S)cc1OC (stereo not drawn) | 129 to 131
65 | COC(=O)C(C)Oc1ccc(Nc2cc(NC(C)=O)c(F)cc2[N+](=O)[O-])cc1 (stereo not drawn) | 126 to 128
66 | CCC(CC)c1ccc(Cl)c2nc3n(c12)CCCCN3c1c(C)cc(C)cc1OC | 196 to 198
67 | CC(=O)C(=CNc1cc(Cl)cc(C(=O)O)c1Cl)C(C)=O | 244 to 246
68 | CC(C)(C)c1cc(OCC(=O)OCCN2C(C)(C)CC(OC(=O)COc3ccc(O)c(C(C)(C)C)c3)CC2(C)C)ccc1O | 74 to 77
69 | Cc1cc(-c2ccc(C(F)(F)F)cc2)nc(-n2cnc(-c3ccc(S(N)(=O)=O)cc3)c2)n1 | 323
70 | O=C(O)c1ccc(Cc2ccccc2)[nH]1 | 130 to 134
71 | CN(C)C=C(C=O)c1ccc(Cl)cc1 | 117 to 120
72 | Brc1ccc2c(c1)CC(Cc1ccccc1)O2 (stereo not drawn) | 70 to 72
73 | COC(=O)c1nsc(N)n1 | 202 to 205
74 | COC(=O)CCc1cc(C(=O)c2ccccc2Cl)c(NC(=O)CBr)s1 | 104 to 106
75 | CN1C(=O)C2CC2(c2ccc([N+](=O)[O-])cc2)C1=O (stereo not drawn) | 148 to 150
76 | Oc1cc(Cl)c(Br)c(Cl)c1 | 118 to 120
77 | C[C@@](O)(C(=O)Nc1ccc(S(=O)(=O)c2ccccc2S(C)(=O)=O)cc1Cl)C(F)(F)F | 114 to 116
78 | CCCCC(=O)Nc1ccc([N+](=O)[O-])cc1 | 107 to 116

Row | SMILES | melting point [°C]
79 | COc1cc2c(cc1C(F)(F)F)N(C(=O)Nc1cc(F)cc(I)c1)CC2 | 221 to 224
80 | COC(=O)CCc1cc2cc(Br)ccc2n1S(=O)(=O)c1ccccc1 | 109 to 113
81 | Cn1c(C(F)(F)F)nn(-c2ccccc2N)c1=O | 101
82 | CCc1ccc(C2C(=O)Oc3c2cc(C(C)(C)C)cc3C(C)(C)C)cc1 (stereo not drawn) | 127 to 132
83 | O=C1C2CSCC1CN(Cc1ccccc1)C2 | 91 to 92
84 | CC(C(=O)NN1CCOCC1)C(C#N)(c1ccccc1)c1ccccc1 (stereo not drawn) | 210 to 215
85 | ON=Cc1ncc(-c2ccccc2)o1 | 208 to 210
86 | CCOC(=O)c1c(-c2ccncc2)[nH]c(-c2ccncc2)c1C | 206 to 208
87 | N#Cc1ccc(/C=C/C=C/C=O)cc1 | 147 to 150
88 | CC(C)c1cccc(C(C)C)c1NS(=O)(=O)CC(=O)NC(c1ccccc1)c1ccccc1 | 166 to 167
89 | COc1ccc(-c2ocnc2-c2cc(OC)c(N)c(OC)c2)cc1O | 126 to 130
90 | CCCc1ccc(S(=O)(=O)c2ccccc2)cc1 | 83 to 85
91 | CC(=O)OC1CSC(Oc2cccnc2C(=O)N2CCCCC2)C(OC(C)=O)C1OC(C)=O (stereo not drawn) | 89 to 92
92 | FC(F)(F)c1cccc(-c2ccnc3ccnn23)c1 | 103 to 104
93 | Nc1ccc(C23CC(C2)C(=O)NC3=O)cc1 | 265
94 | CC(=O)C1CCc2c([nH]c3ccc(Cl)cc23)C1 (stereo not drawn) | 159 to 161
95 | CCOC(=O)COc1ccc(N)cc1C(F)(F)F | 78 to 80
96 | CCOc1cc2c(cc1S(=O)(=O)NC(=S)NC)C(CNC(=O)N1CC(C)=C(CC)C1=O)CCO2 (stereo not drawn) | 178
97 | O=C(O)CCCC=CCCc1ccc(OCc2ccccc2)cc1 | 63 to 65
98 | O=C(CNC(=O)OCc1ccccc1)NCCCCCCO | 104 to 105
99 | N#Cc1cccc2c1nc(-c1c(F)cccc1F)n2Cc1c(F)cccc1F | 153 to 155
100 | CNc1nn(C(=O)NC(C)C(C)Cc2ccc(Cl)cc2)c(=O)n1C (stereo not drawn) | 222 to 224
101 | CC(C)(C)CCNC(=O)N(CCCl)N=O | 43 to 43.5
102 | COC(=O)c1cc(N=C2C=CC(=O)C=C2)c(F)c(-c2ccc(Cl)cc2)n1 | 154 to 156
103 | CNC(=S)NCC1CC(c2ccc(Cl)cc2)=NO1 (stereo not drawn) | 131 to 133
